# Source: patent US7358214B2, “Pyrazolyl carboxanilides for controlling unwanted microorganisms” (Bayer CropScience AG, priority 2003, dated 2008)
# System: not listed separately
# Test: logP determination by HPLC on reversed-phase column (C 18), pH 2.3
# Assay type: physicochemical
# Settings: reversed-phase HPLC column (C 18), HPLC reversed-phase C 18, 43° C.
# Procedure: The logP values given in the preparation examples and the tables above are determined in accordance with EEC Directive 79/831 Annex V.A8 by HPLC (High Performance Liquid Chromatography) on a reversed-phase column (C 18). Temperature: 43° C. The determination is carried out in the acidic range at pH 2.3 using the mobile phases 0.1% aqueous phosphoric acid and acetonitrile; linear gradient from 10% acetonitrile to 90% acetonitrile. Calibration is carried out using unbranched alkan-2-ones (having 3 to 16 carbon atoms) with known logP values (determination of the logP values by retention times using linear interpolation between two successive alkanones).
row,chromatographic logP,Compound
1,4.27,CCC(CC(C)C)c1ccccc1NC(=O)c1c(C(F)(F)F)nn(C)c1F (stereo not shown) [Example 4]
2,3.88,CC(C)CC(C)c1ccccc1NC(=O)c1c(C(F)(F)F)nn(C)c1F (stereo not shown) [Example 2]
3,4.45,CCC(C)(C)CC(C)c1ccccc1NC(=O)c1c(C(F)(F)F)nn(C)c1F (stereo not shown) [Example 3]
4,4.14,"CC(CC(C)(C)C)c1ccccc1NC(=O)c1c(C(F)(F)F)nn(C)c1F (stereo not shown) [Example 1, [5-fluoro-1-methyl-3-(trifluoromethyl)pyrazol-4-yl]-N-[2-(1,3,3-trimethylbutyl)phenyl]carbox-amide]"
5,3.92,CC(C)CC(C)c1cc(F)ccc1NC(=O)c1c(C(F)(F)F)nn(C)c1F (stereo not shown) [Example 5]

# System: Puccinia recondita
# Test: Puccinia test (wheat)/protective
# Assay type: in vivo
# Settings: application rate 500 g/ha; protective; evaluation 10 days after inoculation
# Procedure: • Solvent: 25 parts by weight of N,N-dimethylacetamide • Emulsifier: 0.6 part by weight of alkylaryl polyglycol ether To produce a suitable preparation of active compound, 1 part by weight of active compound is mixed with the stated amounts of solvent and emulsifier, and the concentrate is diluted with water to the desired concentration. To test for protective activity, young plants are sprayed with the preparation of active compound at the stated application rate. After the spray coating has dried on, the plants are sprayed with a conidia suspension of Puccinia recondita. The plants remain in an incubation cabin at 20° C. and 100% relative atmospheric humidity for 48 hours. The plants are then placed in a greenhouse at a temperature of about 20° C. and a relative atmospheric humidity of 80% to promote the development of rust pustules. Evaluation is carried out 10 days after the inoculation. 0% means an efficacy which corresponds to that of the control, whereas an efficacy of 100% means that no infection is observed.
row,Compound,Efficacy in %
1,CC(C)CC(C)c1ccccc1NC(=O)c1c(C(F)(F)F)nn(C)c1F (stereo not shown) [drawing 31],100%
2,CC(CC(C)(C)C)c1ccccc1NC(=O)c1c(C(F)(F)F)nn(C)c1F (stereo not shown) [drawing 30],100%

# System: Sphaerotheca fuliginea
# Test: Spaerotheca test (cucumber)/protective
# Assay type: in vivo
# Settings: application rate 100 g/ha; protective; evaluation 7 days after inoculation
# Procedure: (§1) [table] To produce a suitable preparation of active compound, 1 part by weight of active compound is mixed with the stated amounts of solvents and emulsifier, and the concentrate is diluted with water to the desired concentration. To test for protective activity, young plants are sprayed with the preparation of active compound at the stated application rate. After the spray coating has dried on, the plants are inoculated with an aqueous spore suspension of Sphaerotheca fuliginea. The plants are then placed in a greenhouse at about 23° C. and a relative atmospheric humidity of about 70%. Evaluation is carried out 7 days after the inoculation. 0% means an efficacy which corresponds to that of the control, whereas an efficacy of 100% means that no infection is observed.
row,Compound,Efficacy in %
1,CC(CC(C)(C)C)c1ccccc1NC(=O)c1c(C(F)(F)F)nn(C)c1F (stereo not shown) [drawing 32],100%
2,CCC(C)(C)CC(C)c1ccccc1NC(=O)c1c(C(F)(F)F)nn(C)c1F (stereo not shown) [drawing 34],98%
3,CC(C)CC(C)c1ccccc1NC(=O)c1c(C(F)(F)F)nn(C)c1F (stereo not shown) [drawing 33],100%

# System: Venturia inaequalis
# Test: Venturia test (apple)/protective
# Assay type: in vivo
# Settings: application rate 100 g/ha; protective; evaluation 10 days after inoculation
# Procedure: as §1, with “conidia” for “spore”, “the apple scab pathogen Venturia inaequalis and then remain in an incubation cabin at about 20° C. and 100% relative atmospheric humidity for 1 day.” for “Sphaerotheca fuliginea.”, “21°” for “23°”, “90%.” for “70%.”, “10” for “7”
row,Compound,Efficacy in %
1,CCC(C)(C)CC(C)c1ccccc1NC(=O)c1c(C(F)(F)F)nn(C)c1F (stereo not shown) [drawing 37],99%
2,CC(C)CC(C)c1ccccc1NC(=O)c1c(C(F)(F)F)nn(C)c1F (stereo not shown) [drawing 36],100%
3,CC(CC(C)(C)C)c1ccccc1NC(=O)c1c(C(F)(F)F)nn(C)c1F (stereo not shown) [drawing 35],100%

# System: Botrytis cinerea
# Test: Botrytis test (bean)/protective
# Assay type: in vivo
# Settings: application rate 500 g/ha; protective; evaluation two days after inoculation
# Procedure: [table] To produce a suitable preparation of active compound, 1 part by weight of active compound is mixed with the stated amounts of solvents and emulsifier, and the concentrate is diluted with water to the desired concentration. To test for protective activity, young plants are sprayed with the preparation of active compound at the stated application rate. After the spray coating has dried on, 2 small pieces of agar colonized by Botrytis cinerea are placed onto each leaf. The inoculated plants are placed in a dark chamber at about 20° C. and 100% relative atmospheric humidity. Two days after the inoculation, the size of the infected areas on the leaves is evaluated. 0% means an efficacy which corresponds to that of the control, whereas an efficacy of 100% means that no infection is observed.
row,Compound,Efficacy in %
1,CC(CC(C)(C)C)c1ccccc1NC(=O)c1c(C(F)(F)F)nn(C)c1F (stereo not shown) [drawing 38],100%
2,CC(C)CC(C)c1ccccc1NC(=O)c1c(C(F)(F)F)nn(C)c1F (stereo not shown) [drawing 39],100%
3,CCC(C)(C)CC(C)c1ccccc1NC(=O)c1c(C(F)(F)F)nn(C)c1F (stereo not shown) [drawing 40],95%

# System: Alternaria mali
# Test: In vitro test for the ED50 determination in microorganisms
# Assay type: cell-based
# Settings: 50% inhibition of fungal growth, 22° C., 3-5 days, photometric at 620 nm
# Procedure: A methanolic solution of the active compound to be tested, mixed with emulsifier PS16, is pipetted into the wells of a microtiter plate. After the solvent has evaporated, 200 μl of potato dextrose medium are added to each well. Beforehand, a suitable concentration of spores or mycelium of the fungus to be tested was added to the medium. The resulting concentrations of active compound are 0.1, 1, 10 and 100 ppm. The resulting concentration of the emulsifier is 300 ppm. The plates are then incubated on a shaker at a temperature of 22° C. for 3-5 days, until sufficient growth can be observed in the untreated control. Evaluation is carried out photometrically at a wavelength of 620 nm. The dose of active compound which causes 50% inhibition of fungal growth compared to the untreated control (ED50) is calculated from data measured at different concentrations.
row,Compound,ED50 value in ppm
1,CC(C)CC(C)c1ccccc1NC(=O)c1c(C(F)(F)F)nn(C)c1F (stereo not shown) [drawing 42],0.28 ppm
2,CCC(C)(C)CC(C)c1ccccc1NC(=O)c1c(C(F)(F)F)nn(C)c1F (stereo not shown) [drawing 43],<0.1 ppm
3,CC(CC(C)(C)C)c1ccccc1NC(=O)c1c(C(F)(F)F)nn(C)c1F (stereo not shown) [drawing 41],<0.1 ppm
